# Experimental data reported in patent US9175077B2, “Nucleic acids encoding biologically active polypeptides derived from a novel early stage pregnancy factor designated maternin (MA)” (NOBEL BIOSCIENCES LLC, priority 1999, dated 2015).
# “Also recorded” adds a separate entry of the source. Where two headings read alike, the source gives them in different places.
# B1: β-core: purified hCG beta core, degradation product of the beta chain of hCG; full length native glycosylated AA 6-40 & 55-92 (protein)
# chain 1: RPRCRPINATLAVEKEGCPVCITVNTTICAGYCPTMT
# chain 2: VVCNYRDVRFESIRLPGCPRGVNPVVSYAVALSCQCAL
# Legend:
# HIV-1 = settings: controls at similar, equimolar or higher concentrations
# Description: Virus (MOI of 0.001) was added to 10^6 cells in RPMI-1640 with 10% FCS. One hour later the various polypeptides were added once. The cells cultured for 3 days with 5 ug PHA and 20 i.m. of II-2/ml at 37°, after which virus was estimated by determining p24 (HIV-1) or p27 (SIV) (Organon-Teknika).
# The effect of native and synthetic MA on HIV-1 infection in vitro was evaluated using PHA and II-2 stimulated primary peripheral blood cells (PBMC), CD4+ T-cells enriched fractions from PBMC, and CD14+ macrophage enriched fractions. Infection was with HIV-1 IIIB (PBMC and CD4+ T-cells), HIV-1 Ba-L (macrophages), and two primary HIV-1 isolates not passaged in any cell line (PBMC).
# [1] = system: leukemia and lymphoma cell lines: HUT78, DAVDI, HG, SULTAN, T-cell lymphoma; assay: Confocal microscopy apoptosis; format: cell-based, human; settings: 200 ng/ml; 24 hrs
# Description: (§1) More extensive studies of the effects of MA and with truncated synthetic forms of MA (MAS) on a wide range of other human tumor cells were carried out using three-dimensional confocal microscopy. Cells were cultured and then seeded onto gelatinized glass chamber slides and incubated 24 hrs with the various test materials. The slides were then fixed with formalin and treated serially with Triton X-100 (0.01%) for 10 min at 25°, 0.4 ug/ml fluorescein isothiocyanate (FITC)-labeled Phalloidin (Sigma Chem. Co.) at room temperature for 30 min to bind actin, washed with PBS and the DNA stained with Propidium iodide (PI) (0.5 ug·ml) (Sigma Chemical Co.), for 15 min. The stained slides were washed and mounted on slow fade (Molecular Probes, Inc., Eugene, Oreg.) and examined through a dual emission filter XF53 (Omega, Inc., Brattlesboro, Va.) by fluorescent microscopy. In some experiments only DNA staining was performed. In these instances Triton X-100 was not used. The slides were stained with PI and examined for cell morphology and chromatin degradation under 3D confocal microscopy.
# [2] = system: carcinoma of the kidney HTB46; assay: Confocal microscopy apoptosis; format: cell-based, human; settings: 200 ng/ml; 24 hrs
# Description: as §1
# [3] = system: carcinoma of the lung HTB184; assay: Confocal microscopy apoptosis; format: cell-based, human; settings: 200 ng/ml; 24 hrs
# Description: as §1
# [4] = system: prostate carcinoma cell line PC4; assay: Confocal microscopy apoptosis; format: cell-based, human; settings: 200 ng/ml; 24 hrs
# Description: as §1
# KS Y-1 cells = assay: Confocal microscopy apoptosis; format: cell-based, human; settings: 200 ng/ml; 24 hrs
# Description: as §1
# melanoma HTB67 = assay: Confocal microscopy apoptosis; format: cell-based, human; settings: 200 ng/ml; 24 hrs
# Description: as §1
# [5] = system: carcinoma of the breast HTB124; assay: Confocal microscopy apoptosis; format: cell-based, human; settings: 200 ng/ml; 24 hrs
# Description: as §1
# fibrosarcoma 4TB166 = assay: Confocal microscopy apoptosis; format: cell-based, human; settings: 200 ng/ml; 24 hrs
# Description: as §1
# carcinoma of the colon = assay: Confocal microscopy apoptosis; format: cell-based, human; settings: 200 ng/ml; 24 hrs
# Description: as §1
# [6] = system: prostate carcinoma cell line PC3; assay: Confocal microscopy apoptosis; format: cell-based, human; settings: 200 ng/ml; 24 hrs
# Description: as §1
# gliobastoma HTB16 = assay: Confocal microscopy apoptosis; format: cell-based, human; settings: 200 ng/ml; 24 hrs
# Description: as §1
# Ewing's sarcoma = assay: Confocal microscopy apoptosis; format: cell-based, human; settings: 200 ng/ml; 24 hrs
# Description: as §1
# [7] = system: carcinoma of the pancreas CRL 1682; assay: Confocal microscopy apoptosis; format: cell-based, human; settings: 200 ng/ml; 24 hrs
# Description: as §1
# [8] = system: human carcinoma and sarcoma cells (PC3, KS Y-1); assay: Xenotransplanted human tumors in immunodeficient mice; format: in vivo; settings: controls at equivalent and higher molar concentrations
# Description: In the first set of experiments, MA was tested against tumors formed by xenotransplantation of various human carcinoma and sarcoma cells in immunodeficient mice. […] […] Three different synthetic forms of MA were used: full length (MAS3) and the previously described MAS1 and MAS2 (Panel C).
# human tumor cells = format: cell-based; settings: controls at equimolar or 5 to 10× greater concentrations
# Description: The anti-tumor activities of MA were assessed in several in vitro and in vivo systems using published methods.^166 In vitro studies were with a wide variety of human tumor cell lines as well as short-term cultures of cells from biopsy samples obtained from tumors. The assays included effects of MA on colony formation, cell number and viability (trypan blue), and apoptosis. Four measures of microscopy were used. In vivo studies included the effects of MA on tumors induced in immunodeficient mice by xenotransplanted various human neoplastic cells, spontaneous neoplasms of immuno-competent mice and rats, and a few standard tumors in immuno-competent mice. Representative examples are presented.
# Cells (5×10^5/ml) were seeded in modified Eagle's medium supplemented with 10% FCS, 10% conditioned medium form PHA stimulated human lymphocytes, 2 mM glutamine in 0.8% V/V methylcellulose with or without various treatments in a final volume of 1.0 ml. Then 0.1 ml aliquots were seeded in 96 well flat bottom microtest plates and incubated at 37° C. in 5% CO2 in air for 7 days. Aggregates containing 50 cells or more were scored as colonies.
# 5×10^5 cells were seeded in triplicate on 24 gelatin coated wells in conditions as described for Panel A and treated with the indicated test materials. After 3 days the cells were dislodged from their monolayers by gentle pipetting with cell dissociation buffer (Life Technologies), counted after trypan blue staining and aliquots examined for Annexin V staining by indirect IFA […].
# Studies of the anti-tumor cell effects of MA were extended to other carcinomas, melanoma, some hematopoietic tumors, and carcinomas of the colon, prostate, breast, lung, brain, pancreas, and kidney-using cell lines from these tumors. […] Many more types of tumor cells were studied utilizing other assays (see below).
# HIV-1 gene expression = assay: HIV-1 transgenic mice, pups feeding from treated mothers; format: in vivo; settings: mouse, in vivo
# From the text: The transgenic mice contain 5.1 kb of the HIV-1 proviral genome, lacking gag and pol genes and 2.3 kb of vector.^172 The newly developed transgenic rat contains the same HIV-1 sequences and vector.
# Twenty-four hours after birth the mothers were either inoculated subcutaneously daily for 10 days or received an implanted osmotic pump delivering 30-150 pmoles of either native or synthetic MA or pMA. Various control polypeptides were used at equimolar or vast molar excess. The newborn pups were then allowed to feed from the foster mother breast milk over the entire period. Since the animals are at risk from needle inoculation, breastfeeding was the chosen route for MA administration.
# In these experiments total RNA was extracted from samples of skin RNA206 10 days after birth of MA treated and untreated mice. One ug of RNA was reverse transcribed into cDNA using random hexamer primer and […] reverse transcriptase (Life Technologies, Inc.) in a final vol. Of 30 ul. Three ul of each reaction was used for PCR amplification of the HIV-1 gene sequences (env, tat, nef, and rev) as described […], and glyceraldehyde 3-phosphate dehydrogenase (GAPDH) was amplified from each sample for normalization. After 25 cycles, 10% of the products were resolved by electrophoresis on 2% agarose gels, transferred to nitrocellulose membranes by Southern blotting, and hybridized to fluorescein isthiocyanate-labeled oligonucleotide probes complementary to internal sequences of the amplicons […]. Bound probes were detected by chemiluminescence (Amersham) and relative mRNA levels determined by densitrometry after normalization with GAPDH mRNA levels.
# [9] = Summary of active and inactive peptides / overall biological activities
# [10] = Lethal dose taxol in Sprague-Dawley rats; format: in vivo; settings: even at high doses
# Description: Sprague-Dawley rats were given taxol in large lethal doses, 4.5 mg in one I.P. inoculation. […] Bone marrow suppression can also be a side effect of the clinical use of taxol.^179 As in the radiation experiments, either MA, pMA, MAS1, or various polypeptide controls were given subcutaneously only in two doses 24 and 48 hrs before taxol treatment or were given 3×/week for 4 weeks. […]
# [11] = Lethally irradiated rats and mice; settings: treated at time of radiation
# Description: In order to determine in vivo relevance of the prohematopoietic effects of MA treated rats and mice under several conditions of bone marrow suppression. First, the effects of native MA and pMA and of the synthetic 15-mer MAS1 were treated for their capacity to reduce or prevent the effects of lethal doses of gamma irradiation. […] MA, pMA, MAS1, and various control polypeptides were given 48 and 24 hrs before, during, or 24 hrs after radiation. The animals treated prior to radiation received either 100 ng vs. 1 ug (rats) or 50 ng vs. 500 ng (mice) as 2 subcutaneous injections.
# It is not yet possible to determine the precise molar dose of pMA because of less certainty on its full-length sequence.
# To ascertain that the MA effect did promote hematopoiesis in these animals we examined the bone marrow for cellularity and colony formation and determined peripheral blood counts.
# [12] = system: hematopoietic progenitors (CFU-GEMM, BFU-e, CFU-GM, T-CFC); assay: Hematopoietic colony formation assays; format: cell-based, human
# From the text: Hematopoietic colony formation assays with bone marrow or cord blood of normal human volunteers and bone marrow of monkeys, rats, and mice were utilized. The assays are conventional measurements of the number of progenitors for erythrocytes, granulocytes, macrophages, platelets, and T-cells. The culture conditions included growth factors that would give near optimum growth for the particular lineage. These factors included II-3, PHA-lymphocyte conditioned medium, erythropoietin (EPO), II-6, and GM-CSF. The number of colonies developing in methylcellulose reflects the number of progenitor cells, and the percent increase is a measure of the effect of different polypeptides to increase colony number above the maximum obtained with the indicated known growth factors.
# The latter is a less conventional assay, and details on the methods involved are described elsewhere.^178
molecule,measurement,setting,value
NYRDVRFESIRLPGCPRGVNPVVSYAVALS (listed as Homo sapiens) [MAS2],inhibition of HIV replication (qualitative),HIV-1,full-inhibition
same,induction of apoptosis,[1],induced apoptosis
same,induction of apoptosis,[2],induced apoptosis
same,induction of apoptosis,[3],induced apoptosis
same,induction of apoptosis,[4],induced apoptosis
same,induction of apoptosis,KS Y-1 cells,induced apoptosis
same,induction of apoptosis,melanoma HTB67,induced apoptosis
same,induction of apoptosis,[5],induced apoptosis
same,induction of apoptosis,fibrosarcoma 4TB166,induced apoptosis
same,induction of apoptosis,carcinoma of the colon,induced apoptosis
same,induction of apoptosis,[6],induced apoptosis
same,induction of apoptosis,gliobastoma HTB16,induced apoptosis
same,induction of apoptosis,Ewing's sarcoma,induced apoptosis
same,induction of apoptosis,[7],induced apoptosis
same,effect on xenotransplanted tumor (qualitative),[8],hypocellularity and degenerative changes of the cells; also recorded: undergoing apoptosis
"β-hCG AA 21-52: control peptide 32 amino acids in length, AA 21-52 of β-hCG (EGCPVCITVNTTICAGYCPTMTRVLQGVLPAL; listed as Homo sapiens) [reference compound]",inhibition of growth / induction of apoptosis of neoplastic cells,human tumor cells,negative
same,HIV-1 viral expression in tissues,HIV-1 gene expression,high expression
same,mice dead by day 10,HIV-1 gene expression,10 of 10
"peptide 6-42: β-core AA 6-42 N-terminal polypeptide with PDGF related sequences (RPRCRPINATLAVEKEGCPVCITVNTTICAGYCPTMT; UniProt P0DN86 26-62, looked up, fragment) [reference compound]",biological activities in vitro or in vivo in the experimental systems described,[9],none of the activities
β-hCG 6-39: SEQ ID NO: 17 (RPRCRPINATLAVEKEGCPVCITVNTTICAGYCP; listed as Homo sapiens),inhibition of growth / induction of apoptosis of neoplastic cells,human tumor cells,negative
B1,biological activities in vitro or in vivo in the experimental systems described,[9]; listed as native glycosylated β-core,none of the biological activities
same,biological activities in vitro or in vivo in the experimental systems described,[9]; listed as purified native glycosylated core,no activity
same,inhibition of growth / induction of apoptosis of neoplastic cells,human tumor cells,no inhibition of growth or induction of apoptosis
same,HIV-1 viral expression in tissues,HIV-1 gene expression,high expression
same,mice dead by day 10,HIV-1 gene expression,10 of 10
same,effect on survival (qualitative),[10],no effect
same,time within which animals died,[11],≤ 5 days
same,effect on xenotransplanted tumor (qualitative),[8],no effect
same,hematopoietic effects in vivo and in vitro,[12],None
same,effect on colony number (qualitative),[12]; equimolar or higher concentrations,no significant effect above background
